Results published in the supplement of paper PMC10307832.

compound: C[C@]1(c2nc3c(C(N)=O)cccc3[nH]2)CCCN1 [Veliparib] + Nc1nc2[nH]cc(CCc3ccc(C(=O)N[C@@H](CCC(=O)O)C(=O)O)cc3)c2c(=O)[nH]1 [Pemetrexed] (partner 0.2 µM); test: relative viability (nuclei count vs DMSO), 5 days (fraction); higher = more cells survive; settings: first compound 0.02 µM
How it was run: (§1)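 Values are medians from duplicate plates. Each reflects relative viability, defined as the nuclei count of treated wells over that of vehicle wells. Lung cancer cell lines in 1536-well plates were pin-tool dosed one day after seeding with one drug alone or with a fixed anchor-drug dose plus five library-drug doses (not always all listed) in √10 steps, then fixed, stained and imaged at 4× after 5 days.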

First: NCI-H1915
Second: SK-MES-1
The relative viability of the first is lower: 0.532 for the first, 1 for the second.

Going from NCI-H23 to CAL-12T, the relative viability rises from 0.615 to 1.23.

Going from NCI-H1944 to HCC-366, the relative viability falls from 0.596 to 0.178.

same assay, conditions: first compound 0.06325 µM

Going from NCI-H1915 to SK-MES-1, the relative viability rises from 0.463 to 0.901.

Going from NCI-H23 to CAL-12T, the relative viability rises from 0.593 to 1.06.

First: NCI-H1944
Second: HCC-366
The relative viability of the first is higher: 0.695 for the first, 0.204 for the second.

NCI-H322M showed a relative viability of 0.582.

same assay, conditions: first compound 0.2 µM

First: NCI-H1915
Second: SK-MES-1
The relative viability of the first is lower: 0.537 for the first, 0.946 for the second.

Going from NCI-H23 to CAL-12T, the relative viability rises from 0.623 to 1.32.

Compared with NCI-H1944, HCC-366 is lower in relative viability: 0.547 for the first, 0.227 for the second.

For NCI-H322M, the relative viability was 0.611.

same assay, conditions: first compound 0.6325 µM

Going from NCI-H1915 to SK-MES-1, the relative viability rises from 0.491 to 0.901.

Going from NCI-H23 to CAL-12T, the relative viability rises from 0.747 to 1.09.

First: NCI-H1944
Second: HCC-366
The relative viability of the first is higher: 0.607 for the first, 0.185 for the second.

In the case of NCI-H322M, the relative viability is reported as 0.568.

same assay, conditions: first compound 2 µM

Going from NCI-H1915 to SK-MES-1, the relative viability rises from 0.487 to 0.995.

First: NCI-H23
Second: CAL-12T
The relative viability of the first is lower: 0.622 for the first, 1.3 for the second.

Compared with NCI-H1944, HCC-366 is lower in relative viability: 0.615 for the first, 0.207 for the second.

NCI-H322M was tested, and the relative viability was 0.614.

compound: C[C@]1(c2nc3c(C(N)=O)cccc3[nH]2)CCCN1 [Veliparib] + COc1cc2c(Oc3ccc(NC(=O)C4(C(=O)Nc5ccc(F)cc5)CC4)cc3F)ccnc2cc1OCCCN1CCOCC1 [Foretinib] (partner 0.25 µM); test: as above; settings: first compound 0.02 µM
How it was run: as §1

Going from NCI-H1915 to SK-MES-1, the relative viability falls from 1.09 to 1.

Going from NCI-H23 to CAL-12T, the relative viability rises from 1.08 to 1.2.

Compared with NCI-H1944, HCC-366 is higher in relative viability: 0.806 for the first, 0.987 for the second.

same assay, conditions: first compound 0.06325 µM

Compared with NCI-H1915, SK-MES-1 is lower in relative viability: 0.975 for the first, 0.799 for the second.

Going from NCI-H23 to CAL-12T, the relative viability rises from 0.882 to 1.04.

Going from NCI-H1944 to HCC-366, the relative viability falls from 0.906 to 0.813.

NCI-H322M gave a relative viability of 0.948.

same assay, conditions: first compound 0.2 µM

First: NCI-H1915
Second: SK-MES-1
The relative viability of the first is higher: 1.03 for the first, 0.995 for the second.

Compared with NCI-H23, CAL-12T is higher in relative viability: 1.01 for the first, 1.15 for the second.

Compared with NCI-H1944, HCC-366 is higher in relative viability: 0.731 for the first, 0.891 for the second.

For NCI-H322M, the relative viability was 0.871.

same assay, conditions: first compound 0.6325 µM

Compared with NCI-H1915, SK-MES-1 is lower in relative viability: 0.92 for the first, 0.837 for the second.

Compared with NCI-H23, CAL-12T is higher in relative viability: 0.935 for the first, 1.09 for the second.

Going from NCI-H1944 to HCC-366, the relative viability falls from 0.817 to 0.809.

With NCI-H322M the relative viability was 1.

same assay, conditions: first compound 2 µM

First: NCI-H1915
Second: SK-MES-1
The relative viability of the first is lower: 0.969 for the first, 1.01 for the second.

Compared with NCI-H23, CAL-12T is higher in relative viability: 1.08 for the first, 1.29 for the second.

First: NCI-H1944
Second: HCC-366
The relative viability of the first is lower: 0.813 for the first, 0.934 for the second.

Work on NCI-H322M yielded a relative viability of 0.937.

compound: C[C@]1(c2nc3c(C(N)=O)cccc3[nH]2)CCCN1 [Veliparib] + CC1(C)CCC(c2ccc(Cl)cc2)=C(CN2CCN(c3ccc(C(=O)NS(=O)(=O)c4ccc(N[C@H](CCN5CCOCC5)CSc5ccccc5)c(S(=O)(=O)C(F)(F)F)c4)cc3)CC2)C1 [Navitoclax] (partner 0.5 µM); test: as above; settings: first compound 0.02 µM
How it was run: as §1

First: NCI-H1915
Second: SK-MES-1
The relative viability of the first is lower: 0.766 for the first, 1.27 for the second.

Compared with NCI-H23, CAL-12T is higher in relative viability: 0.884 for the first, 1.38 for the second.

Compared with NCI-H1944, HCC-366 is higher in relative viability: 0.99 for the first, 1.09 for the second.

NCI-H322M was tested, and the relative viability was 1.21.

same assay, conditions: first compound 0.06325 µM

Going from NCI-H1915 to SK-MES-1, the relative viability rises from 0.759 to 1.16.

Going from NCI-H23 to CAL-12T, the relative viability rises from 0.772 to 1.03.

Going from NCI-H1944 to HCC-366, the relative viability rises from 0.996 to 1.01.

NCI-H322M gave a relative viability of 1.04.

same assay, conditions: first compound 0.2 µM

Going from NCI-H1915 to SK-MES-1, the relative viability rises from 0.706 to 1.3.

Compared with NCI-H23, CAL-12T is higher in relative viability: 0.828 for the first, 1.3 for the second.

Compared with NCI-H1944, HCC-366 is higher in relative viability: 0.929 for the first, 0.968 for the second.

NCI-H322M gave a relative viability of 1.19.

same assay, conditions: first compound 0.6325 µM

First: NCI-H1915
Second: SK-MES-1
The relative viability of the first is lower: 0.703 for the first, 1.06 for the second.

Compared with NCI-H23, CAL-12T is higher in relative viability: 0.81 for the first, 1.2 for the second.

Compared with NCI-H1944, HCC-366 is higher in relative viability: 0.907 for the first, 0.942 for the second.

NCI-H322M was tested, and the relative viability was 1.23.

same assay, conditions: first compound 2 µM

Going from NCI-H1915 to SK-MES-1, the relative viability rises from 0.67 to 1.26.

First: NCI-H23
Second: CAL-12T
The relative viability of the first is lower: 0.791 for the first, 1.32 for the second.

First: NCI-H1944
Second: HCC-366
The relative viability of the first is lower: 0.899 for the first, 1.1 for the second.

In the case of NCI-H322M, the relative viability is reported as 1.2.

compound: COC1=CC=C(C=C1)CN2C=CC3=C2C=C(C=C3)C(=O)NO + CC1(C)CCC(c2ccc(Cl)cc2)=C(CN2CCN(c3ccc(C(=O)NS(=O)(=O)c4ccc(N[C@H](CCN5CCOCC5)CSc5ccccc5)c(S(=O)(=O)C(F)(F)F)c4)cc3)CC2)C1 [Navitoclax] (partner 0.5 µM); test: as above; settings: first compound 0.08 µM
How it was run: as §1

Compared with NCI-H1915, SK-MES-1 is higher in relative viability: 0.724 for the first, 1.2 for the second.

Going from NCI-H23 to CAL-12T, the relative viability rises from 0.675 to 0.964.

same assay, conditions: first compound 0.253 µM

First: NCI-H1915
Second: SK-MES-1
The relative viability of the first is lower: 0.778 for the first, 1.3 for the second.

Compared with NCI-H23, CAL-12T is higher in relative viability: 0.689 for the first, 1.29 for the second.

Going from NCI-H1944 to HCC-366, the relative viability rises from 0.998 to 1.05.

For NCI-H322M, the relative viability was 1.1.

same assay, conditions: first compound 0.8 µM

Going from NCI-H1915 to SK-MES-1, the relative viability rises from 0.799 to 1.26.

Compared with NCI-H23, CAL-12T is higher in relative viability: 0.896 for the first, 1.25 for the second.

Going from NCI-H1944 to HCC-366, the relative viability rises from 1.02 to 1.14.

Work on NCI-H322M yielded a relative viability of 1.13.

same assay, conditions: first compound 2.53 µM

Going from NCI-H1915 to SK-MES-1, the relative viability rises from 0.807 to 1.2.

Compared with NCI-H23, CAL-12T is higher in relative viability: 0.985 for the first, 1.24 for the second.

Going from NCI-H1944 to HCC-366, the relative viability falls from 1.08 to 1.06.

NCI-H322M was tested, and the relative viability was 1.18.

same assay, conditions: first compound 8 µM

First: NCI-H1915
Second: SK-MES-1
The relative viability of the first is lower: 0.781 for the first, 1.02 for the second.

Compared with NCI-H23, CAL-12T is higher in relative viability: 0.728 for the first, 1.23 for the second.

Compared with NCI-H1944, HCC-366 is higher in relative viability: 1.08 for the first, 1.13 for the second.

Cell Line NCI-H322M has a relative viability of 1.24.
